Reference: ChEMBL document CHEMBL5038615, “Discovery of a cinnamyl piperidine derivative as new neddylation inhibitor for gastric cancer treatment” (Eur J Med Chem, 2021)
pIC50: −log10 of the molar value. Active and inactive are the calls of the source. No cut-off for these calls is given here.

Key:
[1] = test system: MGC-803; experiment: Antiproliferative activity against human MGC-803 cells assessed as inhibition of cell proliferation measured after 72 hrs by MTT assay; assay type: functional, cell-based; conditions: MGC-803, 72 h
[2] = Cytotoxicity against human GES1 cells assessed as inhibition of cell proliferation measured after 72 hrs by MTT assay; assay type: toxicity, cell-based
[3] = test system: HGC-27; experiment: Antiproliferative activity against human HGC-27 cells assessed as inhibition of cell proliferation measured after 72 hrs by MTT assay; assay type: functional, cell-based; conditions: HGC-27, 72 h
[4] = test system: HGC-27; experiment: Antiproliferative activity against human HGC-27 cells assessed as inhibition of cell proliferation at 0.39 to 50 uM measured upto 72 hrs by MTT assay; assay type: functional, cell-based; conditions: dose 0.39-50 µM, time hrs <=72
[5] = test system: MGC-803; experiment: Cell cycle arrest in human MGC-803 cells assessed as accumulation of cells at G0/G1 phase at 5 uM measured after 24 hrs by Flowcytometry assay (reference value: 46.01%); assay type: functional
[6] = test system: MGC-803; experiment: Cell cycle arrest in human MGC-803 cells assessed as accumulation of cells at G0/G1 phase at 7.5 uM measured after 24 hrs by Flowcytometry assay (reference value: 46.01%); assay type: functional
[7] = test system: MGC-803; experiment: Inhibition of cell migration in human MGC-803 cells at 5 uM measured after 48 hrs by wound healing assay based inverted microscopic analysis; assay type: functional
[8] = test system: MGC-803; experiment: Induction of apoptosis in human MGC-803 cells assessed as viable cells at 2.5 uM measured after 24 hrs by AnnexinV/FITC staining based flow cytometry method (reference value: 94.8%); assay type: functional; conditions: read-out: Activity
[9] = test system: MGC-803; experiment: Induction of apoptosis in human MGC-803 cells assessed as viable cells at 5 uM measured after 48 hrs by AnnexinV/FITC staining based flow cytometry method (reference value: 97.4%); assay type: functional; conditions: read-out: Activity
[10] = test system: MGC-803; experiment: Induction of apoptosis in human MGC-803 cells assessed as early apoptotic cells at 5 uM measured after 48 hrs by AnnexinV/FITC staining based flow cytometry method (reference value: 1.5%); assay type: functional
[11] = test system: MGC-803; experiment: Induction of apoptosis in human MGC-803 cells assessed as necrotic cells at 5 uM measured after 48 hrs by AnnexinV/FITC staining based flow cytometry method (reference value: 0.2%); assay type: functional
[12] = test system: MGC-803; experiment: Induction of apoptosis in human MGC-803 cells assessed as late apoptotic cells at 7.5 uM measured after 48 hrs by AnnexinV/FITC staining based flow cytometry method (reference value: 0.9%); assay type: functional
[13] = test system: HGC-27; experiment: Induction of apoptosis in human HGC-27 cells assessed as viable cells at 3 uM measured after 24 hrs by AnnexinV/FITC staining based flow cytometry method (reference value: 95.7%); assay type: functional; conditions: read-out: Activity
[14] = test system: HGC-27; experiment: Induction of apoptosis in human HGC-27 cells assessed as late apoptotic cells at 6 uM measured after 24 hrs by AnnexinV/FITC staining based flow cytometry method (reference value: 2.4%); assay type: functional
[15] = test system: HGC-27; experiment: Induction of apoptosis in human HGC-27 cells assessed as necrotic cells at 6 uM measured after 24 hrs by AnnexinV/FITC staining based flow cytometry method (reference value: 1.2%); assay type: functional
[16] = test system: HGC-27; experiment: Induction of apoptosis in human HGC-27 cells assessed as late apoptotic cells at 6 uM measured after 48 hrs by AnnexinV/FITC staining based flow cytometry method (reference value: 1%); assay type: functional
[17] = test system: MGC-803; experiment: Induction of apoptosis in human MGC-803 cells assessed as reduction of mitochondrial membrane potential at 7.5 uM measured after 24 hrs by JC-1 staining based Flowcytometry assay (reference value: 3.8%); assay type: functional; set-up: scale not given: the % may be the effect or the level left
[18] = test system: HGC-27; experiment: Induction of apoptosis in human HGC-27 cells assessed as reduction of mitochondrial membrane potential at 3 uM measured after 24 hrs by JC-1 staining based Flowcytometry assay (reference value: 2.4%); assay type: functional; set-up: scale not given: the % may be the effect or the level left
[19] = test system: HGC-27; experiment: Induction of apoptosis in human HGC-27 cells assessed as reduction of mitochondrial membrane potential at 9 uM measured after 24 hrs by JC-1 staining based Flowcytometry assay (reference value: 2.4%); assay type: functional; set-up: scale not given: the % may be the effect or the level left
[20] = test system: MGC-803; experiment: Induction of apoptosis in human MGC-803 cells assessed as upregulation of Bid at 2.5 to 7.5 uM measured after 24 hrs by Western blot assay; assay type: functional, cell-based; conditions: dose 2.5-7.5 µM
[21] = test system: MGC-803; experiment: Induction of apoptosis in human MGC-803 cells assessed as down-regulation of Bcl2 at 2.5 to 7.5 uM measured after 24 hrs by Western blot assay; assay type: functional, cell-based; conditions: dose 2.5-7.5 µM
[22] = test system: HGC-27; experiment: Induction of apoptosis in human HGC-27 cells assessed as downregulation of Bcl-2 at 3 to 9 uM measured after 24 hrs by Western blot assay; assay type: functional, cell-based; conditions: dose 3-9 µM
[23] = test system: HGC-27; experiment: Induction of apoptosis in human HGC-27 cells assessed as upregulation of Bid at 3 to 9 uM measured after 24 hrs by Western blot assay; assay type: functional, cell-based; conditions: dose 3-9 µM
[24] = test system: MGC-803; experiment: Induction of apoptosis in human MGC-803 cells assessed as ROS levels at 2.5 uM measured after 24 hrs by DCFH-DA staining based flow cytometry assay (reference value: 3.3%); assay type: functional
[25] = test system: MGC-803; experiment: Induction of apoptosis in human MGC-803 cells assessed as ROS levels at 7.5 uM measured after 24 hrs by DCFH-DA staining based flow cytometry assay (reference value: 3.3%); assay type: functional
[26] = test system: MGC-803; experiment: Antitumour activity against human MGC-803 cells xenografted in NOD-SCID mouse assessed as reduction on tumour growth at 50 mg/kg/day, IG measured after 21 days relative to control; assay type: functional; conditions: MGC-803, po, 504 h, time 21 day, read-out: TGI
[27] = test system: HGC-27; experiment: Induction of apoptosis in human HGC-27 cells assessed as upregulation of Bax at 3 to 9 uM measured after 24 hrs by Western blot assay; assay type: functional, cell-based; conditions: dose 3-9 µM
[28] = target: T1, NEDD8-activating enzyme E1 regulatory subunit (Homo sapiens) (UniProt Q13564); experiment: Inhibition of NAE-mediated neddylation in human MGC-803 cells assessed as cullin4B-Nedd8 adduct formation at 2.5 to 7.5 uM measured after 24 hrs by western blot assay; assay type: cell-based; conditions: dose 2.5-7.5 µM
T1 sequence (whole entry): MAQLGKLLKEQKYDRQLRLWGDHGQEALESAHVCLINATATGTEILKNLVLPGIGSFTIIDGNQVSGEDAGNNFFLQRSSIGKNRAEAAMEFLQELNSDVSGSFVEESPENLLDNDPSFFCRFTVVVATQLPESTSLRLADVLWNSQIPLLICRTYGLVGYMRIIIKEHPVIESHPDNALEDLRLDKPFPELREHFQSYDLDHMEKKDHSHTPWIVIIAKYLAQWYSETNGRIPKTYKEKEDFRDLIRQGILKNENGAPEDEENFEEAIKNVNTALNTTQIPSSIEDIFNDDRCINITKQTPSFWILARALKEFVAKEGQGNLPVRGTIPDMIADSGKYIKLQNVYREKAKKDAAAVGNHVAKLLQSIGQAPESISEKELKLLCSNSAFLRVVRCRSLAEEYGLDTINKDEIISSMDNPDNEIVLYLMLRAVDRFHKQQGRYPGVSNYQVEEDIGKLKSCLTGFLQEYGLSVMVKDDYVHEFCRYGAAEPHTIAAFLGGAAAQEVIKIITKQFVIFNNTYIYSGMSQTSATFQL

[29] = test system: HGC-27; experiment: Induction of apoptosis in human HGC-27 cells assessed as late apoptotic cells at 3 uM measured after 24 hrs by AnnexinV/FITC staining based flow cytometry method (reference value: 2.4%); assay type: functional

pIC50 [1]: 5.59
inhibition [28]: inactive
SMILES: CCCCCc1ccc(NC(=O)C2CCN(C/C=C/c3ccccc3)CC2)cc1
IC50 at 72 h [2]: 8.7 µM
pIC50 [3]: 5.50
Activity [4]: Dose-Dependent Effect
Activity [5]: 44.87%
Activity [6]: 37.06%
inhibition at 5 µM [7]: 40%
viability at 2.5 µM [8]: 93.5%
viability at 5 µM [9]: 38.4%
Activity [10]: 9.8%
Activity [11]: 0.8%
Activity [12]: 95.6%
viability at 3 µM [13]: 87.5%
Activity [14]: 51.3%
Activity [15]: 0.2%
Activity [16]: 21.2%
Activity [17]: 70%
Activity [18]: 4.4%
Activity [19]: 58%
Activity [20]: Dose-Dependent Effect
Activity [21]: Dose-Dependent Effect
Activity [22]: Dose-Dependent Effect
Activity [23]: Dose-Dependent Effect
Activity [24]: 4%
Activity [25]: 22.2%
inhibition in vivo at 50 mg/kg/day [26]: 32.3%
Activity [27]: Dose-Dependent Effect
Activity [29]: 4.6%
